Results published in patent publication US20220023291A1, “COMPOSITIONS AND METHODS FOR REGULATING INFLAMMATION” (University of Virginia Patent Foundation, priority 2018, published 2022).
Entries after “also recorded” stand apart in the source; their conditions may differ. One block for each molecule: values may come before it.

What was measured:
BMDM [1] = assay: IL-6 ELISA on supernatant of LPS-stimulated BMDM; format: cell-based, mouse; conditions: 1 μg/mL LPS, 6 hours; 20 μM JSH-23, 20 μM PD98059, 1 μM SP600125, 5 μM 4μ8C
Procedure: (§1) Tissue culture conditions and Reagents. HEK293 cells, primary lung fibroblasts and BMDM were isolated and maintained as described (41-43). Cells were treated with LPS (Sigma, L4391), 4μ8C (Tocris, 4479), tunicamycin (Tocris, 3516), PD98059 (Medchem Express HY-12028), JSH-23 (Medchem Express, Hy-13982), SP600125 (Medchem Express, HY-12041), cycloheximide (Tocris, 0970), lactacystin (Cayman Chemical, 70980), chloroquine (Fisher, ICN19391925), and STF 083010 (Medchem Express, HY-15845) as described in the text.
(§2) ELISA. ELISA for IL-6 and TNFα were performed as previously described (Remick et al., 2002). Antibodies used were: anti-mouse IL-6 MP5-20F3 (Biolegend, 504501) 0.5 μg/mL; biotin anti-mouse IL-6 MP5-32C11 (Biolegend, 504601) 1 μg/mL; anti-mouse TNFα (R&D systems, AF-410-NA) 0.5 μg/mL; biotin anti-mouse TNFα (R&D systems, BAF410) 0.25 μg/mL.
Tissue culture conditions and Reagents. HEK293 mTLR4/MD2/CD14 (Invivogen, 293-mtlr4md2cd14), primary lung fibroblasts, and BMDM were isolated and maintained as described (Zhang et al., 2008; Seluanov et al., 2010). Cells and animals were treated with LPS (Sigma, L4391), 4μ8C (Tocris, 4479), APY-29 (Medchem Express HY-17537), PD98059 (Medchem Express HY-12028), JSH-23 (Medchem Express, HY-13982), SP600125 (Medchem Express, HY-12041), STF 083010 (Medchem Express, HY-15845), Fluvoxamine (Medchem Express, HY-B0103A), and Ceftriaxone (Hospira, NDC: 0409-7337-01), as described in the text.
as §2, with “TNF-α” for “TNFα”

[2] = molecular target: T1, IRE1 endonuclease activity (Mus musculus, UniProt Q9EQY0); assay: XBP1 splicing ratio by qPCR in BMDM; format: cell-based; conditions: WT and S1R KO BMDM, 100 ng/mL LPS + 5 μM 4μ8C, 6 hours
T1 construct: We prepared bone marrow derived macrophages (BMDM) from WT and S1R KO mice; endogenous in cells; host or cells: primary mouse bone marrow derived macrophages (WT and S1R KO, C57BL/6J background)
Procedure: as §1
(§3) cDNA synthesis and quantitative RT-PCR. Total RNA was extracted using an ISOLATE II RNA (Bioline, 52073) and cDNA synthesis was performed with the ISCRIPT™ kit (Bio-Rad, 170-8891). TaqMan Probes were obtained from Life Technologies (GAPDH: Mm99999915_g1; IL-6: Mm00446190_m1; pro-IL-1β: Mm00434228_m1; TNFα: Mm00443258_m1). Primers for IRE1 detection were GCACGUGAAUUGAUAGAGA (SEQ ID NO: 10) and UCUCUAUCAAUUCACGUGC (SEQ ID NO: 11). Primers for the detection of XBP1 were previously published (Lipson et al., 2008). RT-PCR was performed as described previously (Gaultier et al., 2009).
(§4) cDNA synthesis and quantitative PCR. Total RNA was extracted using an ISOLATE II RNA kit (Bioline, 52073) and cDNA synthesis was performed with the SENSIFAST™ cDNA synthesis kit (Bioline, BIO-65054). TaqMan Probes were obtained from Thermo Fisher (GAPDH: Mm99999915_g1; IL-6: Mm00446190_m1; pro-IL-1β: Mm00434228_m1; IL10: Mm004396). Primers for the detection of XBP1, IL-8, and actin were previously published (Vandesompele et al., 2002; Kumar & Valdivia, 2008; Girard et al., 2009). qPCR was performed as described previously (Gaultier et al., 2008).

IRE1 transcript = assay: qPCR for IRE1 expression in BMDM; format: cell-based, mouse; conditions: S1R KO BMDM, 5 μM 4μ8C
Procedure: as §3

BMDM [3] = assay: qPCR for pro-inflammatory cytokine expression in LPS-treated BMDM; format: cell-based, mouse; conditions: 100 ng/mL LPS + 5 μM 4μ8C, 6 hours
Procedure: as §3, §4

primary lung fibroblasts = assay: IL-6 ELISA on supernatant of LPS-stimulated primary lung fibroblasts; format: cell-based, mouse; conditions: 1 μg/mL LPS + 5 μM 4μ8C, 6 hours
Procedure: as §1, §2
Tissue culture conditions and Reagents. HEK293 mTLR4/MD2/CD14 (Invivogen, 293-mtlr4md2cd14), primary lung fibroblasts, and BMDM were isolated and maintained as described (Zhang et al., 2008; Seluanov et al., 2010). […]

[4] = cited from earlier work
[5] = pre-clinical tests; cited from earlier work
[6] = tested on: transgenic (3×Tg-AD) mice; conditions: cited from earlier work

T1 sequence (Q9EQY0 21-977): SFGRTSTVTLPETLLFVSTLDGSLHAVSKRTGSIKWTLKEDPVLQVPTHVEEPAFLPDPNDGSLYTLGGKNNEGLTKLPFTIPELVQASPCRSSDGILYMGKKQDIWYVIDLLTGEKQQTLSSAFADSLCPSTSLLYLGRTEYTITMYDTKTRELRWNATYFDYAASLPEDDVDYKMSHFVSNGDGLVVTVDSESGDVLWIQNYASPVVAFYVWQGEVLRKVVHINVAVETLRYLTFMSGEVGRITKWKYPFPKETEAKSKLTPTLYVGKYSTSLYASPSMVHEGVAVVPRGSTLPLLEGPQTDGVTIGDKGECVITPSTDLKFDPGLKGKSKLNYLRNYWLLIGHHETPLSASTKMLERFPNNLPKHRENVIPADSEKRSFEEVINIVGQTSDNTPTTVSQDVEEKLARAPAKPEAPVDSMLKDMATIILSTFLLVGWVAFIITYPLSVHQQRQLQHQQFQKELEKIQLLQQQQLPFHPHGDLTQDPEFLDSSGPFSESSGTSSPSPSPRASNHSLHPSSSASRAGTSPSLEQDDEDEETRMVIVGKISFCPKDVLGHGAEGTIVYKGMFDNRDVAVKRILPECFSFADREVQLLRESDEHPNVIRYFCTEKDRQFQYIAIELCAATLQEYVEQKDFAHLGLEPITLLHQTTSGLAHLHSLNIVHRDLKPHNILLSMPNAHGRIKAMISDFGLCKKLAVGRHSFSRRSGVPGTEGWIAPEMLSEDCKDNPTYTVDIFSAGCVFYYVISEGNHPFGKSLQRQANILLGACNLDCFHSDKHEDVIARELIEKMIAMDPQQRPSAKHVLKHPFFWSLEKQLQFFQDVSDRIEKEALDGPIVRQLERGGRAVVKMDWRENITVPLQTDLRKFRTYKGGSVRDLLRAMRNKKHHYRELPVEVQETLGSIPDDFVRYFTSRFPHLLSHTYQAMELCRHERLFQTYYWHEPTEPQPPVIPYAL

- LPS induced XBP1 splicing [2]: completely abolished
Structure (SMILES): Cc1cc(=O)oc2c(C=O)c(O)ccc12 [4μ8C, 7-Hydroxy-4-methyl-2-oxo-2H-1-benzopyran-8-carboxaldehyde]
- Difference in LPS-induced IL-6 secretion between WT and S1R KO BMDM (BMDM [1]): rescued IL-6 secretion in S1R KO cells to the levels observed in control BMDM
- IRE1 transcript levels (IRE1 transcript): restores IRE1 transcript levels to those observed in WT BMDM
- Potentiated cytokine expression in S1R KO BMDM relative to WT (qPCR) (BMDM [3]): inhibits potentiation of cytokine expression in S1R KO BMDM; also recorded: reversed IL-6 expression in KO cells to the amount observed in WT BMDM
- IL-1β expression (qPCR) (BMDM [3]; WT and S1R KO BMDM): decreases
- IL-6 expression (qPCR) (BMDM [3]; WT and S1R KO BMDM): decreases
- IL-6 / cytokine secretion by lung fibroblasts upon LPS stimulation (primary lung fibroblasts): marked decrease of cytokine secretion
- Half-life in vivo [4]: short half-life

Structure (SMILES): CN(C)CC1COC(c2ccccc2)(c2ccccc2)C1.Cl (stereo not shown) [ANAVEX® 1-41, tetrahydro-N,N-dimethyl-5,5-di phenyl-3-furanmethanamine hydrochloride]
- Neuroprotective benefits [5]: significant neuroprotective benefits

Structure (SMILES): CC1SC2(CCN(C)CC2)CN1C(=O)CCc1c[nH]c2ccccc12 (stereo not shown) [ANAVEX® 3-71, 1-(2,8-dimethyl-1-thia-3,8-diazaspiro(4.5)dec-3-yl)-3-(1H-indol-3-yl)propan-1-one]
- Effect on major Alzheimer's hallmarks (cognitive deficits, amyloid and tau pathologies) [6]: highly effective in very small doses
